Results: PubChem BioAssay AID256 (DTP/NCI, 2004)
“And” between values parts separate entries of the source, which are not always exact repeats. Equal entries are not always repeated. Inconclusive results and toxic doses are left out.

Tested on: CD2F1 mice, L1210 leukemia ip, survival T/C
Assay: NCI In Vivo Anticancer Drug Screen. Data for tumor model L1210 Leukemia (intraperitoneal) in CD2F1 (CDF1) mice
Details: higher = longer survival
In short: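 Read-out first: treated-group measurement over vehicle-control measurement, expressed as a ratio. Animals bore a transplanted tumor line and were dosed with compound or vehicle.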

[1] = endpoint: mean survival time, dose: 100.0 mg/kg/injection, schedule: Q04DX003 (ip), vehicle: Klucel (hydroxypropylcellulose) (HPC)
[2] = endpoint: mean survival time, dose: 200.0 mg/kg/injection, schedule: Q04DX003 (ip), vehicle: Klucel (hydroxypropylcellulose) (HPC)
[3] = endpoint: mean survival time, dose: 400.0 mg/kg/injection, schedule: Q04DX003 (ip), vehicle: Klucel (hydroxypropylcellulose) (HPC)

N/C(=N/N=C/c1ccc(O)cc1)N[N+](=O)[O-]
T/C [1]: 92 % of control
T/C [2]: 86 % of control
T/C [3]: 92 % of control

c1ccc(C(OOC(c2ccccc2)(c2ccccc2)c2ccccc2)(c2ccccc2)c2ccccc2)cc1
T/C (endpoint: mean survival time, dose: 50.0 mg/kg/injection, schedule: Q01DX009 (ip), vehicle: saline with Tween-80): 90 % of control
T/C (endpoint: mean survival time, dose: 100.0 mg/kg/injection, schedule: Q01DX009 (ip), vehicle: saline with Tween-80): 90 % of control
T/C (endpoint: mean survival time, dose: 200.0 mg/kg/injection, schedule: Q01DX009 (ip), vehicle: saline with Tween-80): 90 % of control

O=C(O)C(O)C(O)C(OC1OC(CO)C(O)C(O)C1O)C(O)CO.O=C(O)C(O)C(O)C(OC1OC(CO)C(O)C(O)C1O)C(O)CO.[NH-]C1CCCCC1[NH-].[Pt+2] (configuration not stated)
T/C (endpoint: median survival time, dose: 3.12 mg/kg/injection, schedule: Q04DX003 (ip), vehicle: saline): 113 % of control
T/C (endpoint: median survival time, dose: 6.25 mg/kg/injection, schedule: Q04DX003 (ip), vehicle: saline): 121 % of control
T/C (endpoint: median survival time, dose: 12.5 mg/kg/injection, schedule: Q04DX003 (ip), vehicle: saline): 162 % of control
T/C (endpoint: median survival time, dose: 25.0 mg/kg/injection, schedule: Q04DX003 (ip), vehicle: saline): 195 % of control
T/C (endpoint: median survival time, dose: 50.0 mg/kg/injection, schedule: Q04DX003 (ip), vehicle: saline): 158 % of control and 365 % of control
T/C (endpoint: median survival time, dose: 200.0 mg/kg/injection, schedule: Q04DX003 (ip), vehicle: saline): 119 % of control

Cc1ccc2[nH]c(=O)oc(=O)c2c1
T/C (endpoint: mean survival time, dose: 100.0 mg/kg/injection, schedule: Q04DX003 (ip), vehicle: saline with Tween-80): 104 % of control
T/C (endpoint: mean survival time, dose: 200.0 mg/kg/injection, schedule: Q04DX003 (ip), vehicle: saline with Tween-80): 98 % of control
T/C (endpoint: mean survival time, dose: 400.0 mg/kg/injection, schedule: Q04DX003 (ip), vehicle: saline with Tween-80): 106 % of control

CN1C2CCC1C(CCl)C(O)C2 (configuration not stated)
T/C (endpoint: mean survival time, dose: 50.0 mg/kg/injection, schedule: Q01DX009 (ip), vehicle: saline): 97 % of control
T/C (endpoint: mean survival time, dose: 100.0 mg/kg/injection, schedule: Q01DX009 (ip), vehicle: saline): 104 % of control
T/C (endpoint: mean survival time, dose: 200.0 mg/kg/injection, schedule: Q01DX009 (ip), vehicle: saline): 101 % of control

CC(C)OC(=O)N(C(=O)OC(C)C)c1ccccc1
T/C (endpoint: mean survival time, dose: 100.0 mg/kg/injection, schedule: Q04DX002 (ip), vehicle: saline with Tween-80): 94 % of control
T/C (endpoint: mean survival time, dose: 200.0 mg/kg/injection, schedule: Q04DX002 (ip), vehicle: saline with Tween-80): 108 % of control
T/C (endpoint: mean survival time, dose: 400.0 mg/kg/injection, schedule: Q04DX002 (ip), vehicle: saline with Tween-80): 94 % of control

C=CCOc1c(C(=O)OCC)cnc2c1cnn2CC
T/C [1]: 108 % of control
T/C [2]: 108 % of control
T/C [3]: 101 % of control

CC1(C)N=C(N)N=C(N)N1c1ccc(CCCCc2ccc(Cl)c(S(=O)(=O)F)c2)c(Cl)c1
T/C (endpoint: mean survival time, dose: 2.4 mg/kg/injection, schedule: Q01DX009 (ip), vehicle: saline with Tween-80): 101 % of control
T/C (endpoint: mean survival time, dose: 3.6 mg/kg/injection, schedule: Q01DX009 (ip), vehicle: saline with Tween-80): 95 % of control
T/C (endpoint: mean survival time, dose: 5.4 mg/kg/injection, schedule: Q01DX009 (ip), vehicle: saline with Tween-80): 104 % of control
T/C (endpoint: mean survival time, dose: 8.0 mg/kg/injection, schedule: Q01DX009 (ip), vehicle: saline with Tween-80): 106 % of control
T/C (endpoint: mean survival time, dose: 12.0 mg/kg/injection, schedule: Q01DX009 (ip), vehicle: saline with Tween-80): 108 % of control
T/C (endpoint: mean survival time, dose: 18.0 mg/kg/injection, schedule: Q01DX009 (ip), vehicle: saline with Tween-80): 117 % of control
T/C (endpoint: mean survival time, dose: 100.0 mg/kg/injection, schedule: Q04DX003 (ip), vehicle: saline sonified): 90 % of control

CCN(CC)c1cccc(OC(=O)NC)c1
T/C (endpoint: mean survival time, dose: 5.0 mg/kg/injection, schedule: Q01DX001 (ip), vehicle: saline): 102 % of control
T/C (endpoint: mean survival time, dose: 10.0 mg/kg/injection, schedule: Q01DX001 (ip), vehicle: saline): 102 % of control
T/C (endpoint: mean survival time, dose: 20.0 mg/kg/injection, schedule: Q01DX001 (ip), vehicle: saline): 102 % of control

O=c1[nH]cnc2nc(C3OC(CO)C(O)C3O)[nH]c12 (configuration not stated)
T/C (endpoint: median survival time, dose: 4.5 mg/kg/injection, schedule: Q01DX005 (ip), vehicle: distilled water + Tween-80): 102 % of control
T/C (endpoint: median survival time, dose: 9.0 mg/kg/injection, schedule: Q01DX005 (ip), vehicle: distilled water + Tween-80): 106 % of control
T/C (endpoint: median survival time, dose: 18.0 mg/kg/injection, schedule: Q01DX005 (ip), vehicle: distilled water + Tween-80): 98 % of control
T/C (endpoint: median survival time, dose: 36.0 mg/kg/injection, schedule: Q01DX005 (ip), vehicle: distilled water + Tween-80): 100 % of control
T/C (endpoint: median survival time, dose: 72.0 mg/kg/injection, schedule: Q01DX005 (ip), vehicle: distilled water + Tween-80): 107 % of control

O=C(OCC1OC([Se])C(OC(=O)c2ccccc2)C(OC(=O)c2ccccc2)C1OC(=O)c1ccccc1)c1ccccc1.[CH3][Sb][CH3] (configuration not stated)
T/C (endpoint: mean survival time, dose: 50.0 mg/kg/injection, schedule: Q01DX009 (ip), vehicle: Klucel (hydroxypropylcellulose) (HPC)): 100 % of control
T/C (endpoint: mean survival time, dose: 100.0 mg/kg/injection, schedule: Q01DX009 (ip), vehicle: Klucel (hydroxypropylcellulose) (HPC)): 103 % of control
T/C (endpoint: mean survival time, dose: 200.0 mg/kg/injection, schedule: Q01DX009 (ip), vehicle: Klucel (hydroxypropylcellulose) (HPC)): 100 % of control
